{
  "source": "patent US20190282497A1",
  "about": "(Bryn Pharma, LLC, priority 2018, published 2019)",
  "tested_on": "histamine induced nasal congestion",
  "data": [
    {"smiles": "NCCc1c[nH]cn1", "note": "[Histamine, histamine]", "values": [
      {"measurement": "nasal congestion and flow restriction pressure", "setting": "Group 1, 5 and 10 minutes post-histamine exposure", "result": "progressive increase in nasal congestion and flow restriction pressure"},
      {"measurement": "histamine induced congestion without epinephrine", "setting": "pilot study, no epinephrine, 60, 80 and 100 minute time points", "result": "remains elevated at significant levels"}
    ]}
  ]
}
